This is an account of results in patent US11234988B2, “Fluorohydroxyproline derivatives useful in the preparation of proteolysis targeted chimeras” (UNIVERSITY OF DUNDEE, priority 2016, dated 2022).

One assay deals with VHL (Homo sapiens, UniProt P40337). Conditions: as reported in Galdeano et al. 2014 and Zengerle et al. 2015; cited from earlier work.
The subject of the next assay is BRD4. Conditions: Zengerle et al. 2015; cited from earlier work.
The target in another assay is VBC complex (Homo sapiens, UniProt P40337). The experiment in a line: Isothermal titration calorimetry (ITC) of VHL ligands against VBC. Format: binding. Conditions: FIG. 3. As for the experimental part:
ITC Data on the Binding of VHL Ligands 14b and 14d
Titrations were performed on an ITC200 micro-calorimeter (GE Healthcare). Compounds 14b and 14d were diluted from a DMSO stock solution to 0.6 mM in a 20 mM HEPES, 150 mM NaCl, 1 mM TCEP (pH 7) buffer. The compound was titrated against 60 μM VBC complex, equilibrated in the same buffer. Total amount of DMSO in the buffer was 3%. The data were fitted to a single binding site model to obtain the stoichiometry n, the dissociation constant Kd and the enthalpy of binding ΔH using the Microcal LLC ITC200 Origin software provided by the manufacturer.
In general terms: ITC needs no label: the signal is the heat of the interaction.

By Kd is commonly meant a measure of binding affinity in units of concentration. A high value points to lower affinity.

Each structure is given as a SMILES string.

VBC complex, sequence (P40337 54-213 limits assumed): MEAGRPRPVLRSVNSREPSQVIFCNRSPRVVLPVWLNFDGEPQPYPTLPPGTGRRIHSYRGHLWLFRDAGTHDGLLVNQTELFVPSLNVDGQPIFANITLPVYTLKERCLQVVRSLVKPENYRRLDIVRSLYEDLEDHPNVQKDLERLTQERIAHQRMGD
VBC complex, sequence (Q15370 1-104 partner limits assumed): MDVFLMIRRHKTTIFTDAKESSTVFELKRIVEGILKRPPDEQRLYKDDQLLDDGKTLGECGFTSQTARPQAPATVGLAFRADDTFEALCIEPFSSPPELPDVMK
VBC complex, sequence (Q15369 17-112 partner limits assumed): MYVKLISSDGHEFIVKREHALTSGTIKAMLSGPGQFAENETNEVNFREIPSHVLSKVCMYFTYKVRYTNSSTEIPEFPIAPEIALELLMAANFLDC
VHL, sequence (P40337 54-213 limits assumed): as the sequence (P40337 54-213 limits assumed) above
VHL, sequence (Q15370 1-104 partner limits assumed): as the sequence (Q15370 1-104 partner limits assumed) above
VHL, sequence (Q15369 17-112 partner limits assumed): as the sequence (Q15369 17-112 partner limits assumed) above

For the compound `Cc1ncsc1-c1ccc(CNC(=O)[C@@H]2C[C@H](O)CN2C(=O)[C@@H](NC(=O)COCCOCCOCCNC(=O)C[C@@H]2N=C(c3ccc(Cl)cc3)c3c(sc(C)c3C)-n3c(C)nnc32)C(C)(C)C)cc1` [cisMZ1, (2S,4S)-1-((S)-2-(tert-butyl)-17-((S)-4-(4-chlorophenyl)-2,3,9-trimethyl-6H-thieno[3,2-f][1,2,4]triazolo[4,3-a][1,4]diazepin-6-yl)-4,16-dioxo-6,9,12-trioxa-3,15-diazaheptadecanoyl)-4-hydroxy-N-(4-(4-methylthiazol-5-yl)benzyl)pyrrolidine-2-carboxamide], the “binding to VHL” value on VHL is listed as “did not exhibit any measureable binding affinity for VHL”.
Turning to `Cc1ncsc1-c1ccc(CNC(=O)[C@@H]2C[C@@H](O)CN2C(=O)[C@@H](NC(=O)COCCOCCOCCNC(=O)C[C@@H]2N=C(c3ccc(Cl)cc3)c3c(sc(C)c3C)-n3c(C)nnc32)C(C)(C)C)cc1` [MZ1, (2S,4R)-1-((S)-2-(tert-butyl)-17-((S)-4-(4-chlorophenyl)-2,3,9-trimethyl-6H-thieno[3,2-f][1,2,4]triazolo[4,3-a][1,4]diazepin-6-yl)-4,16-dioxo-6,9,12-trioxa-3,15-diazaheptadecanoyl)-4-hydroxy-N-(4-(4-methylthiazol-5-yl)benzyl)pyrrolidine-2-carboxamide], the “removal of BRD4 over BRD2 and BRD3” value in the assay on BRD4 is “potently and rapidly induce reversible, long-lasting and unexpectedly selective removal of BRD4 over BRD2 and BRD3”. Further, the “binding to VHL” value on VHL is given as “found to bind VHL”.
On VBC complex, `CC(=O)N[C@H](C(=O)N1C[C@H](O)[C@H](F)[C@H]1C(=O)NCc1ccc(-c2scnc2C)cc1)C(C)(C)C` [Compound 14b] returned a Kd of 235 nM, a ΔH of -6.566 kcal/mol and a ΔS of 8.30 cal/mol/deg.
For `CC(=O)N[C@H](C(=O)N1C[C@H](O)[C@@H](F)[C@H]1C(=O)NCc1ccc(-c2scnc2C)cc1)C(C)(C)C` [Compound 14d], at VBC complex, the Kd is 235 nM, the ΔH is -6.566 kcal/mol and the ΔS amounted to 8.30 cal/mol/deg.
